This is an account of results in patent publication US9556162B2, “Compound for the treatment of hepatitis C” (Bristol-Myers Squibb Company, priority 2013, dated 2017).

Data set [1] deals with genotype 1b (Con-1) HCV replicon. Kind of data set: HCV replicon luciferase assay. It is filed as cell-based. The settings on record: Hepatitis C virus, Huh-7, 72 h. Here is the method:
The cell lines used to evaluate compounds consist of a human hepatocyte derived cell line (Huh-7) that constitutively expresses a genotype 1b (Con-1) HCV replicon or a genotype 1b (Con-1) HCV replicon with an asparagine replacing the cysteine at amino acid 316, or a genotype 2a (JFH-1) replicon, containing a Renilla luciferase reporter gene. These cells were maintained in Dulbecco's modified Eagle medium (DMEM) containing 10% FBS, 100 U/mL penicillin/streptomycin and 1.0 mg/mL G418.
To evaluate compound efficacy, titrated compounds were transferred to sterile 384-well tissue culture treated plates, and the plates were seeded with HCV replicon cells (50 μL at a density of 2.4×10^3 cells/well) in DMEM containing 4% FBS (final DMSO concentration at 0.5%). After 3 days incubation at 37 C, cells were analyzed for Renilla Luciferase activity using the EnduRen substrate (Promega cat #E6485) according to the manufacturer's directions. […] The plates were incubated for at least 1 h at 37° C. then read on a Viewlux Imager (PerkinElmer) using a luminescence program. […]
To assess cytotoxicity of compounds, Cell Titer-Blue (Promega) was added to the EnduRen-containing plates and incubated for at least 4 h at 37° C. The fluorescence signal from each well was read using a Viewlux Imager. All CC50 values were calculated using the four-parameter logistic formula.
On the technique in general: Replicon systems follow genome replication, usually without infectious particles.

For data set [2], the target named is T1, NS5B enzyme, HCV genotype 1b (Con1) (Hepatitis C virus genotype 1b, UniProt Q9WMX2).
T1 construct: Each untagged protein was expressed with an 18 amino acid C-terminal truncation to enhance the solubility; made in house; host or cells: E. coli BL21(DE3), pET21a vector
T1 sequence (Q9WMX2 2420-2992): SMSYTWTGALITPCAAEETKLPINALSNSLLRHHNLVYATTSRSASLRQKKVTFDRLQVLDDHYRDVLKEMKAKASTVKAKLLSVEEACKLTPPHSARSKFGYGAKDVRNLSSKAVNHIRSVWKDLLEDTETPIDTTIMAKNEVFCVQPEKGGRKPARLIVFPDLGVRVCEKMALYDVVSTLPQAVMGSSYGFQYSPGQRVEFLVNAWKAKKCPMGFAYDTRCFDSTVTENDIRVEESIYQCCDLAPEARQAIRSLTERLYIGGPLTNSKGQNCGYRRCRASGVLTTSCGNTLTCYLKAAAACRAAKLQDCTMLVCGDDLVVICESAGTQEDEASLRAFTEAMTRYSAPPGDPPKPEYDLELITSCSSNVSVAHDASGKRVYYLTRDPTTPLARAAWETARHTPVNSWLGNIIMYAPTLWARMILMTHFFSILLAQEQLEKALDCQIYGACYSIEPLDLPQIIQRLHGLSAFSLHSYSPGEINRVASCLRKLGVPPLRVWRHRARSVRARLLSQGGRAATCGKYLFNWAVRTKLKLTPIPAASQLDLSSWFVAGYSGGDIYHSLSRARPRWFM
Kind of data set: HCV NS5B RdRp enzyme assay. It is filed as biochemical. To be noted: 1b NS5B enzyme, 24 h preincubation, [33P]-GTP incorporation. Here is the method: The cDNA encoding NS5B proteins of HCV genotype 1b (Con1), a genotype 1b variant with amino acid 316 mutated from cysteine to asparagine, and genotype 2a (JFH-1), were cloned into the pET21a expression vector. Each untagged protein was expressed with an 18 amino acid C-terminal truncation to enhance the solubility. The E. coli competent cell line BL21(DE3) was used for expression of the protein. Cultures were grown at 37° C. for ˜4 hours until the cultures reached an optical density of 2.0 at 600 nm. The cultures were cooled to 20° C. and induced with 1 mM IPTG. Fresh ampicillin was added to a final concentration of 50 μg/mL and the cells were grown overnight at 20° C.
Cell pellets (3 L) were lysed for purification to yield 15-24 mgs of purified NS5B. […]
HCV NS5B RdRp enzyme assay. […] The newly synthesized RNA product was precipitated by 10% TCA and quantified on the Packard Top Count NXT. IC50 values for compounds were determined using seven different [I]. IC50 values were calculated from the inhibition using the four-parameter logistic formula y=A+((B−A)/(1+((C/x)^D))), where A and B denote minimal and maximal % inhibition, respectively, C is the IC50, D is hill slope and x represents compound concentration.

The next data set relates to HCV. To be noted: cited from earlier work.

By EC50 is commonly meant the concentration needed to bring the measured effect to its halfway point. High values mean a need for much substance, low ones an effect from little substance. As usually defined, the IC50 is the point on the concentration scale where inhibition reaches its midpoint. Low values mean greater potency in that assay, high ones weaker potency in that assay. In data set [1], `CC[C@@H](C)c1cc2oc(-c3ccc(F)cc3)c(C(=O)NC)c2cc1-c1cccc(C(=O)NC(C)(C)c2ncon2)c1` (single isomer, unassigned) [Enantiomer 2] had an EC50 of 5.5 nM. The molecule further registered an IC50 in data set [2] of 2.3 nM.
As to `CNC(=O)c1c(-c2ccc(F)cc2)oc2cc(N(CCO)S(C)(=O)=O)c(C3CC3)cc12` [HCV-796], in the data set with HCV (patients, combined with interferon and ribavirin), the “toxicity during extended dosing of the combination regimens” value is on record as “hepatic toxicity”. Also, the “HCV RNA levels in patients” value with HCV (single agent: transient decrease then rebound during dosing) is “reduce HCV RNA levels”.
